Measured values from US20180011102A1, “THE PROTEIN KINASE ACTIVITY OF PHOSPHOGLYCERATE KINASE 1 AS A TARGET FOR CANCER TREATMENT AND DIAGNOSIS” (Board of Regents, The University of Texas System, priority 2015, published 2018).
Entries after “also recorded” stand apart in the source; their conditions may differ.

Assays:
PDHK1 T338 = assay: Immunoblotting of hypoxia-induced PDHK1 T338 phosphorylation; assay type: cell-based, human; settings: U87 and U251 cells with PGK1 shRNA, hypoxia 6 h
Experimental: FIGS. 14A-P. Mitochondrial PGK1 Phosphorylates PDHK1 at T338. FIG. 14A. […] Immunoblotting analyses were performed with the indicated antibodies. FIG. 14B. U87 cells (left panel) or U87/EGFR (right panel) cells expressing PGK1 shRNA with or without reconstituted expression of WT rPGK1 and the indicated mutants were stimulated with or without hypoxia for 6 h (left panel) or EGF (100 ng/ml) (right panel) for 6 h. These cells were incubated with [1-^14C]-pyruvate for 2 h. [1-^14C]CO2 production rates were measured. FIG. 14C. U87 cells expressing SFB-PDHK1, SFB-PDHK2, SFB-PDHK3, or SFB-PDHK4 were stimulated with or without hypoxia for 6 h. Mitochondrial fractions of these cells were prepared. SFB pull-down analyses with streptavidin-conjugated beads were performed. Immunoblotting analyses were performed with the indicated antibodies. FIG. 14D. […] Phospho-amino acid analysis of gel-isolated ^32P-phosphorylated SUMO-PDHK1 was performed. […] On the autoradiogram in the right hand panel, the green circle indicates pSer; the red circle indicates pThr; and the black circle indicates pTyr. FIG. 14E. […] FIG. 14F. […] ATP concentrations in mitoplast isolated from U87 or U251 cells treated with or without hypoxia for 6 h were measured. […] The glycolytic activities of bacterially purified WT PGK1, PGK1 T378P, PGK1 S203A, and PGK1 R39/K41A were measured. […]

histone H3 at Ser10 = assay: Western blot of EGF-induced histone H3 S10 phosphorylation; assay type: cell-based, human; settings: U87 cells expressing PGK1 shRNA, EGF stimulation
PDH = assay: Immunoblotting of hypoxia-induced PDH phosphorylation; assay type: cell-based, human; settings: U87 and U251 cells expressing PGK1 shRNA, hypoxia 6 h
Experimental: FIGS. 5A-E. PDHK1 Phosphorylation by PGK1 Activates PDHK1. Immunoblotting analyses were performed with the indicated antibodies. FIG. 5A. Bacterially purified His-PDH with purified WT PDHK1 or PDHK1 T338A was mixed with purified WT PGK1 or PGK1 T378P. In vitro phosphorylation analyses were performed. FIG. 5B. […] FIG. 5C. U87 and U251 cells expressing PDHK1 shRNA with or without reconstituted expression of WT rPDHK1 or rPDHK1 T338A were stimulated with or without hypoxia for 6 h. FIG. 5D. […] FIG. 5E.

PDH complex = settings: isolated mitochondria of U87 cells with PGK1 shRNA, hypoxia 6 h
Experimental: U87 cells with or without PGK1 shRNA and with or without reconstituted expression of WT rPGK1 or rPGK1 S203A were stimulated with or without hypoxia for 6 h. Mitochondrial fractions of the cells were prepared and activity of PDH complex-mediated conversion of ^14C-labeled pyruvate into ^14C-labeled CO2 was measured. Data represent the means±SD of three independent experiments. *p<0.01.
The [1-^14C]-pyruvate conversion assay was performed as previously described (Pezzato et al., 2009) with minor modification. Briefly, ^14CO2 production through the PDH complex was measured using isolated mitochondria (1 mg) in the 1 ml mitochondria resuspension buffer (200 mM sucrose, 10 mM Hepes [pH 7.4], 5 mM malate, 2 mM monosodium phosphate, 2 mM ADP, 1 mM EGTA) containing [1-^14C]-pyruvate (0.1 μCi/ml). The incubation mixture in a 2-ml Eppendorf tube was placed at the bottom of a 20-ml scintillation vial with a foil-lined screw cap and maintained in agitation. The ^14CO2 produced during incubation was trapped by 1 ml of hyamine hydroxide at the bottom of the scintillation vial. […] Then, 19 ml of scintillator liquid was added to each scintillation vial and radioactivity was measured on a scintillation counter. The results were normalized based on mitochondrial protein levels measured by Bradford assay using bovine serum albumin as the standard.

PGK1 shRNA: pGIPZ PGK1 shRNA generated with GGATGTCTATGTCAATGATGC (SEQ ID NO: 4)
hypoxia-induced PDHK1 T338 phosphorylation (PDHK1 T338): blocked | EGF-induced phosphorylation of histone H3 at Ser10 (histone H3 at Ser10): blocked; also recorded: greatly diminished | hypoxia-induced PDH phosphorylation (PDH): blocked | hypoxia-induced suppression of conversion of pyruvate to CO2 (PDH complex): significantly counteracted
